Experiment [1] can be described thus: DSC doublet peak area of bleached hair after twelve heat cycles (galactosamine). Here is the method:
In the DSC experiments (using DSC-6 with Autosampler, Perkin Elmer), the hair was cut in small fragments (1-2 mm) and sealed in […] aluminum pans that were punctured prior to heating, resulting in a 50 micron laser-drilled opening in the pan lid. The hair was heated from 25° C. to 300° C. at a heating rate of 2^0° C./min. Three runs per section were performed. The results were averaged and standard deviations determined. Normal brown hair was processed with Revlon Realistic Professional Extra-Strength Relaxer for 30 min. at standard room temperature and humidity. The relaxed brown hair was subjected to six heat cycles, each heat cycle comprised applying the treatment solutions to the hair, blow-drying the hair, and applying heat to the hair for 1 min. in the form of the Professional Flat Iron (Solid Gold) set at “High” (130° C. to 135° C.). The hair was shampooed with a 10% solution of sodium laureth sulfate after each heat cycle, that is, after the heat application and prior to application of the treatment solution. Normal brown hair was bleached with […] Blonde Dimensions Dust-Free Bleached mixed with 40 volume (12% hydrogen peroxide). The bleached hair was then subject to twelve heat cycles. The heat treatment was as described in Example 2. The heat-treated hair was tested by DSC (Perkin Elmer Pyris 1 DSC) as described in Example 1. […]

The nature of experiment [2]: DSC doublet peak area of normal blonde hair after 12 heat cycles (lyxosylamine). Here is the method: Normal brown hair was processed with Revlon Realistic Professional Extra-Strength Relaxer for 30 min. at standard room temperature and humidity. The relaxed brown hair was subjected to six heat cycles, each heat cycle comprised applying the treatment solutions to the hair, blow-drying the hair, and applying heat to the hair for 1 min. in the form of the Professional Flat Iron (Solid Gold) set at “High” (130° C. to 135° C.). The hair was shampooed with a 10% solution of sodium laureth sulfate after each heat cycle, that is, after the heat application and prior to application of the treatment solution.
Normal blonde hair was subjected to 12 heat cycles, as described in Example 2, using a 0.1 wt % solution of D-Lyxosylamine.

Experiment [3] can be described thus: DSC doublet peak area of bleached hair after 6 and 12 heat cycles. Here is the method:
In the DSC experiments (using DSC-6 with Autosampler, Perkin Elmer), the hair was cut in small fragments (1-2 mm) and sealed in […] aluminum pans that were punctured prior to heating, resulting in a 50 micron laser-drilled opening in the pan lid. The hair was heated from 25° C. to 300° C. at a heating rate of 2^0° C./min. Three runs per section were performed. The results were averaged and standard deviations determined. Normal brown hair was processed with Revlon Realistic Professional Extra-Strength Relaxer for 30 min. at standard room temperature and humidity. The relaxed brown hair was subjected to six heat cycles, each heat cycle comprised applying the treatment solutions to the hair, blow-drying the hair, and applying heat to the hair for 1 min. in the form of the Professional Flat Iron (Solid Gold) set at “High” (130° C. to 135° C.). The hair was shampooed with a 10% solution of sodium laureth sulfate after each heat cycle, that is, after the heat application and prior to application of the treatment solution. Normal brown hair was bleached using […] Blonding Gels Clear with 40 volume (12% hydrogen peroxide). The hair was subject to a total of twelve heat cycles. The heat treatment was as described in Example 2. The heat-treated hair was tested by DSC (Perkin Elmer Pyris 1 DSC) as described in Example 1. The hair was tested after Cycles 6 and 12. The treatment solutions included: a) deionized water, b) 0.001% (w/v) glucosamine hydrochloride solution, c) 0.010% (w/v) glucosamine hydrochloride solution, d) 0.100% (w/v) glucosamine hydrochloride solution, and e) 1.000% (w/v) glucosamine hydrochloride solution. Three DSC runs per treatment were performed, the results were averaged, and standard deviations determined.

Experiment [4] is described as follows: DSC doublet peak area (alpha-structure) of relaxed hair after six heat cycles. Here is the method: In the DSC experiments (using DSC-6 with Autosampler, Perkin Elmer), the hair was cut in small fragments (1-2 mm) and sealed in […] aluminum pans that were punctured prior to heating, resulting in a 50 micron laser-drilled opening in the pan lid. The hair was heated from 25° C. to 300° C. at a heating rate of 2^0° C./min. Three runs per section were performed. The results were averaged and standard deviations determined. Normal brown hair was processed with Revlon Realistic Professional Extra-Strength Relaxer for 30 min. at standard room temperature and humidity. The relaxed brown hair was subjected to six heat cycles, each heat cycle comprised applying the treatment solutions to the hair, blow-drying the hair, and applying heat to the hair for 1 min. in the form of the Professional Flat Iron (Solid Gold) set at “High” (130° C. to 135° C.). The hair was shampooed with a 10% solution of sodium laureth sulfate after each heat cycle, that is, after the heat application and prior to application of the treatment solution. The treatment solutions included: a) deionized water; and b) 1% (w/v) glucosamine hydrochloride (Glucosamine HCl). The hair swatches from Example 2 were studied by differential scanning calorimetry (DSC). In this example, the hair was equilibrated at standard room temperature and humidity for 24 hours prior to testing.

Experiment [5] in a line: Wet tensile strength (Dia-Stron) of relaxed hair after six heat cycles. The protocol: Normal brown hair was processed with Revlon Realistic Professional Extra-Strength Relaxer for 30 min. at standard room temperature and humidity. The relaxed brown hair was subjected to six heat cycles, each heat cycle comprised applying the treatment solutions to the hair, blow-drying the hair, and applying heat to the hair for 1 min. in the form of the Professional Flat Iron (Solid Gold) set at “High” (130° C. to 135° C.). The hair was shampooed with a 10% solution of sodium laureth sulfate after each heat cycle, that is, after the heat application and prior to application of the treatment solution. The treatment solutions included: a) deionized water; and b) 1% (w/v) glucosamine hydrochloride (Glucosamine HCl). The hair was tested for wet tensile strength using a Dia-Stron. The fibers were stretched in water at a rate of 10 mm/min., with 50 fibers per test. The results were averaged, and standard deviations determined. As used herein, “Young's modulus” corresponds to the initial resistance of the hair to the applied pulling force, “Work 25%” is the work required to extend the hair fiber to 25% of its length, “Break Extension” is the hair extension observed at the breaking point expressed at percent of its original length, and “Work-Break” is the work required to break the hair.

Where [6] appears, read: 1% solution, relaxed hair, six heat cycles.
[7] abbreviates: relaxed hair after 6 cycles at 130° C. with 1% (w/v) solution, wet tensile, n = 50 fibers.

`Cl.N[C@H]1C(O)O[C@H](CO)[C@H](O)[C@@H]1O` (some centres unmarked) [Galactosamine HCI, galactosamine hydrochloride]: the “doublet area as compared to the control solution (deionized water)” value in experiment [1] (1% solution, bleached hair, 12 heat cycles) is “significant increase”. Also, in experiment [1] (bleached hair after 12 heat cycles with 1% solution), the “Doublet Peak Area” value is on record as 41.52 +/− 3.94 J/g hair.

With `NC1OC[C@@H](O)[C@H](O)[C@@H]1O` (stereo partly drawn) [D-Lyxosylamine], the “protection of the α-structure of hair as compared to the control solution (deionized water)” value in experiment [2] (0.1 wt % solution, normal blonde hair, 12 heat cycles) is “protected the α-structure”. For the same compound, in experiment [2] (normal blonde hair after 12 heat cycles with 0.1% solution), the “Doublet Peak Area” value is 11.49 +/− 3.56 J/g hair.

Regarding `Cl.N[C@H]1C(O)O[C@H](CO)[C@@H](O)[C@@H]1O` (some centres unmarked) [Glucosamine HCl, glucosamine hydrochloride], the “Doublet Peak Area” value in experiment [3] (0.001% solution, 6 cycles) is recorded as 11.11 +/− 1.74 J/g hair; in experiment [3] (0.001% solution, 12 cycles) it was 14.74 +/− 5.95 J/g hair; in experiment [3] (0.010% solution, 6 cycles), 12.32 +/− 3.74 J/g hair; in experiment [3] (0.010% solution, 12 cycles) it was 21.66 +/− 12.88 J/g hair; in experiment [3] (0.100% solution, 6 cycles), 17.32 +/− 2.23 J/g hair; in experiment [3] (0.100% solution, 12 cycles), 20.92 +/− 1.73 J/g hair. Further, the “Doublet Peak Area” value in experiment [3] (1.000% solution, 6 cycles) is reported as 19.40 +/− 4.14 J/g hair; in experiment [3] (1.000% solution, 12 cycles), 22.98 +/− 6.57 J/g hair; in experiment [4] (relaxed hair after 6 heat cycles with 1% solution), 23.11 +/− 7.09 J/g hair. The “doublet area as compared to the control solution (deionized water)” value in experiment [3] (0.001% to 1.000% solutions, 6 and 12 heat cycles) is given as “significant increase”; in experiment [4] (setting [6]) it was “significant increase”. In addition, the “tensile properties as compared to the control treatment with deionized water” value in experiment [5] (setting [6]) was “superior tensile properties”. Besides, the “Break Extension” value in experiment [5] (setting [7]) was 55.10 +/− 4.77%. Also, the “Work 25%” value in experiment [5] (setting [7]) is given as 419 +/− 111 J/m^2. Moreover, in experiment [5] (setting [7]), the Work-Break is on record as 1800 +/− 477 J/m^2. Also, the “Young's Modulus” value in experiment [5] (setting [7]) is 613 +/− 196 MN/m^2.

The values above are taken from patent publication US20030053977A1, “Compositions comprising at least one aminated C5-C7 saccharide unit, and their use for the protection and/or repair of keratinous fibers” (priority 2001, published 2003).
